{"source": "paper PMC5842439", "about": "(Nuclear medicine and biology, 2013)", "tested_on": "BT474 xenografts", "conditions": "for tumor SUV, % of pretreatment SUV: mice without DOX (n=8), mean±SD", "note": "Where two headings read alike, the source gives them in different places."}
{"smiles": "OC[C@H]1OC(O)[C@H]([18F])[C@@H](O)[C@@H]1O", "note": "(stereo partly shown) [Agent F-18-FDG, 2’-F-18-fluorodeoxyglucose]", "values": [{"measurement": "muscle uptake in contralateral normal thigh", "setting": "PET imaging, mouse bearing BT474 tumor in the right thigh", "value": "significant"}, {"measurement": "tumor SUV, % of pretreatment SUV", "setting": "3rd week", "value": "108±28", "unit": "%"}, {"measurement": "tumor SUV, % of pretreatment SUV", "setting": "5th week", "value": "151±8", "unit": "%"}, {"measurement": "tumor SUV, % of pretreatment SUV", "setting": "7th week", "value": "152±355", "unit": "%"}]}
